Measurements as given in patent EP4497439A1, “COMPOUNDS FOR THE TREATMENT OR PREVENTION OF GOUT” (Universitat de les Illes Balears, priority 2023, dated 2025).
Read-outs that look alike come from different tables or passages of the source.

Legend:
[1] = in vitro model of monosodium urate monohydrate (MSU) crystallization: naked eye observation and uric acid remaining in solution (phosphotungstic acid method); format: physicochemical; design: C100 (minimum concentration that totally prevented the formation of sodium urate crystals): unit not given here; conditions: for concentration capable of preventing the formation of MSU crystals (increased uric acid in solution) / C100 (minimum concentration that totally prevented the formation of sodium urate crystals): 5 days (120 h); for effect on the crystallization of MSU (formation of MSU crystals) / solubility of sodium urate in the tested fluid: compound 0.3 mM; for effect on the crystallization of MSU (formation of MSU crystals): uric acid 375 mg/L (2.23 mM), 6 days (144 h) plate images, 4 days uric acid in solution; for effect on the crystallization of MSU (formation of MSU crystals) / solubility of sodium urate in the tested fluid / C100 (minimum concentration that totally prevented the formation of sodium urate crystals): phosphate buffer 12 mM
[2] = doses of up to 400 mg three times a day; treatment of myopia; cited from earlier work
[3] = cited from earlier work
[4] = uric acid 375 mg/L, [Na+] 400 mM, pH 7.4

## Cn1c(=O)[nH]c(=O)c2[nH]cnc21 [3-methylxanthine]
[1]; [4]
  concentration capable of preventing the formation of MSU crystals (increased uric acid in solution): ≤ 50 µM
  solubility of sodium urate in the tested fluid: significantly increased
[1]; [Na+] 400 mM, pH 7.4
  effect on the crystallization of MSU (formation of MSU crystals): strong inhibition
[1]; same concentration
  effects relative to those of 7-methylxanthine: approximately half

## Cn1c(=O)[nH]c2[nH]c(=O)[nH]c(=O)c21 [7-methyluric acid]
[1]; [Na+] 400 mM, pH 7.4
  effect on the crystallization of MSU (formation of MSU crystals): strong inhibition
[1]; [4]
  solubility of sodium urate in the tested fluid: significantly increased
[1]; same concentration
  effects relative to those of 7-methylxanthine: like those of 7-methylxanthine

## Cn1cnc2[nH]c(=O)[nH]c(=O)c21 [7-methylxanthine]
[2]
  toxicity: do not present any toxicity
[1]; 50 µM, 100 µM and 150 µM, triplicates, uric acid 375 mg/L, [Na+] 400 mM, pH 7.4, 72 h
  formation of MSU crystals after 3 days: completely prevented
[1]; [4]
  concentration capable of preventing the formation of MSU crystals (increased uric acid in solution): ≤ 50 µM
  solubility of sodium urate in the tested fluid: significantly increased
[1]; [UA]0 275 mg/L, [Na+] 400 mM, pH 7.4
  C100 (minimum concentration that totally prevented the formation of sodium urate crystals): 10
[1]; [UA]0 300 mg/L, [Na+] 400 mM, pH 7.4
  C100 (minimum concentration that totally prevented the formation of sodium urate crystals): 20
[1]; [UA]0 340 mg/L, [Na+] 400 mM, pH 7.4
  C100 (minimum concentration that totally prevented the formation of sodium urate crystals): 40
[1]; [UA]0 375 mg/L, [Na+] 400 mM, pH 7.4
  C100 (minimum concentration that totally prevented the formation of sodium urate crystals): 60
[1]; [UA]0 400 mg/L, [Na+] 400 mM, pH 7.4
  C100 (minimum concentration that totally prevented the formation of sodium urate crystals): 80
[1]; [UA]0 425 mg/L, [Na+] 400 mM, pH 7.4
  C100 (minimum concentration that totally prevented the formation of sodium urate crystals): 100
[1]; [UA]0 450 mg/L, [Na+] 400 mM, pH 7.4
  C100 (minimum concentration that totally prevented the formation of sodium urate crystals): 125
[1]; [Na+] 400 mM, pH 7.4
  effect on the crystallization of MSU (formation of MSU crystals): strong inhibition
[1]; same concentration, 5 days, uric acid 375 mg/L
  crystallization inhibition compared with the other methylxanthine: significantly higher crystallization inhibition compared to 3-methylxanthine
[1]; times longer than 48h
  concentration that prevents the formation of sodium urate crystals for times longer than 48h: ~6 mg/L

## Cn1c(=O)c2c(ncn2C)n(C)c1=O [caffeine, 1,3,7-trimethylxanthine, reference compound]
[3]; administered orally
  share metabolized to 7-methylxanthine: 8%
[1]; [Na+] 400 mM, pH 7.4
  effect on the crystallization of MSU (formation of MSU crystals): does not affect

## Cn1cnc2c1c(=O)[nH]c(=O)n2C [theobromine, 3,7-dimethylxanthine, reference compound]
[3]; in vivo, po
  share metabolized to 7-methylxanthine: 30%
[1]; [Na+] 400 mM, pH 7.4
  effect on the crystallization of MSU (formation of MSU crystals): did not show any effect
